From PubChem BioAssay (NCI)
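Growth conditions: 96-well plates. Treatment: test compound, 48 hours, 5 concentrations. Analysis: linear interpolation between bracketing concentrations; unreached endpoints set to highest concentration. The concentration for full growth arrest is given as TGI.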

Experiments:
Assay in all cases: DTP human tumour cell line panel, 48 h
HL-60(TB) leukemia = tested on: HL-60(TB) leukemia
RPMI-8226 leukemia = tested on: RPMI-8226 leukemia
HCT-116 colon = tested on: HCT-116 colon
MDA-MB-435 = tested on: MDA-MB-435
T-47D breast = tested on: T-47D breast
OVCAR-3 ovarian = tested on: OVCAR-3 ovarian
HCT-15 colon = tested on: HCT-15 colon
SF-268 CNS = tested on: SF-268 CNS
MALME-3M melanoma = tested on: MALME-3M melanoma
NCI/ADR-RES ovarian = tested on: NCI/ADR-RES ovarian

Row | SMILES | TGI (HL-60(TB) leukemia) | TGI (RPMI-8226 leukemia) | TGI (HCT-116 colon) | TGI (MDA-MB-435) | TGI (T-47D breast) | TGI (OVCAR-3 ovarian) | TGI (HCT-15 colon) | TGI (SF-268 CNS) | TGI (MALME-3M melanoma) | TGI (NCI/ADR-RES ovarian)
1 | NC(Cc1ccc(S(=O)(=O)O)cc1)C(=O)NC(Cc1ccc(S(=O)(=O)O)cc1)C(=O)O (stereo not given) | > 100 µM | > 100 µM | > 100 µM | > 100 µM | > 100 µM | > 100 µM | > 100 µM | > 100 µM | > 100 µM | > 100 µM
2 | O=C1c2cn[nH]c2C(c2ccccc2)N1c1ccccc1 (stereo not given) | > 10 µM | > 10 µM | > 10 µM | > 10 µM | > 10 µM | > 10 µM | > 10 µM | > 10 µM | > 10 µM | > 10 µM
3 | CCc1nc2ccc(NCCN(C)C)c3c(=O)c4ccccc4n1c23 | 8.68 µM | 7.78 µM | 6.26 µM | 2.4 µM | 20.8 µM | 4.45 µM | 4.66 µM | 5.36 µM | 7.47 µM | 3.38 µM
4 | COc1ccc(-n2sc3ncccc3c2=O)cc1 | 41.5 µM | > 100 µM | 32.6 µM | 66.7 µM | 44.1 µM | 60.8 µM | 44.2 µM | 58.3 µM | 30.9 µM | 59.6 µM
5 | C[Si](C)(C)C1=C([Si](C)(C)C)C(Cl)(Cl)C1=O | 1.53 µM | 3.99 µM | 7.02 µM | 7.22 µM | 6.35 µM | 8.15 µM | 4.05 µM | 21.1 µM | 4.22 µM | 27.1 µM
6 | O=C(CCc1ccccc1)On1c(-c2ccccc2)nc2ccccc2c1=S | > 100 µM | > 100 µM | 8.81 µM | > 100 µM | > 100 µM | > 100 µM | 67.5 µM | > 100 µM | 22.6 µM | 79.1 µM
7 | O=[N+]([O-])c1ccc(O)c(/C=N/NC(=S)N2CCCCC2)c1 | > 42.1 µM | > 52.4 µM | 40.3 µM | > 83 µM | > 80.1 µM | > 100 µM | 44.1 µM | 24.6 µM | 10.3 µM | 3.85 µM
8 | COc1ccc(/C=N/n2cnc3[nH]c(C)c(Cc4ccccc4)c3c2=N)cc1 | > 100 µM | > 100 µM | > 100 µM | > 100 µM | > 100 µM | > 100 µM | > 100 µM | > 100 µM | > 100 µM | > 100 µM
9 | Cn1c(N/N=C/c2ccccc2)nc(-c2ccc([N+](=O)[O-])cc2)c(C#N)c1=O | 48.3 µM | > 100 µM | > 100 µM | > 100 µM | > 100 µM | 44.9 µM | > 100 µM | > 100 µM | > 100 µM | > 100 µM
10 | O=c1[nH]cnc2c1nnn2CCCCCCCCCCCCn1nnc2c(=O)[nH]cnc21 | > 100 µM | > 100 µM | > 84.1 µM | > 100 µM | > 100 µM | > 100 µM | > 100 µM | 79.9 µM | > 100 µM | > 100 µM
11 | COc1ccccc1C[C@@H]1OC2(C=CC(=O)C=C2)O[C@H]1Cc1ccccc1OC | 29.8 µM | 6.24 µM | 2.32 µM | 38.2 µM | > 50 µM | 18.9 µM | 27.9 µM | 16.9 µM | 21.3 µM | 18.4 µM
12 | COc1cc(-c2ccccc2N)c2cccnc2c1OC | 16.5 µM | 14.8 µM | 11.9 µM | 21.1 µM | 13.7 µM | 16.1 µM | 16.1 µM | 12.8 µM | 30.4 µM | 35.9 µM
13 | CCOC(=O)Cc1nc2c(N)ncnc2n1C1OC(COC(C)=O)C(OC(C)=O)C1OC(C)=O (stereo not given) | > 100 µM | > 100 µM | > 100 µM | > 100 µM | > 100 µM | > 100 µM | > 100 µM | > 100 µM | > 100 µM | > 100 µM
